Laboratory results reported in US8921414B2, “Spiroketals” (EcoBiotics Ltd, priority 2005, dated 2014).
Converted amounts (≈) assume the structure as drawn.

Assays:
DU145 prostate cancer = test: Cell growth inhibition (Table 22), DU145; format: cell-based; conditions: Homo sapiens, DU-145; read-out: IC50 (drug dose which inhibits cell growth by 50%) DU145
Method: (§1) The isolated compounds were tested against a number of human and non-human cancer cell lines. The human tumor cell lines were: MCF-7, MDA-MB-231 and T47D, breast cancer; DU145 and PC3, prostate cancer; CI80-13S, ovarian cancer; MM96L, D04, SkMel5, MM418c5 melanoma; HT29, colon cancer; K562 and HL60, leukemia. Mouse cell lines were the B16 mouse melanoma and LK2 UV-induced squamous cell carcinoma (SCC). Neonatal foreskin fibroblasts (NFF) were used as normal control cells. Cells were cultured at 37° C. in 5% carbon dioxide/air, in RPMI 1640 medium containing 10% fetal calf serum.

Bacillus subtilis = test: ProTOX (Bs) antibacterial bioassay; format: cell-based; conditions: weight of chemical in last well with activity; real value may be lower
Description: ProTOX, (alternatively referred to herein as Bs) is an antibacterial bioassay, broadly applicable to most aerobic and anaerobic bacteria. The bioassay features a solid phase agar base into which the test compound has been incorporated together with a chromogen. As the bacteria multiply in the well, the chromogen is metabolised from blue in a two-step process to a colourless compound. Compounds with potent bactericidal activity inhibit bacterial metabolism of the chromogen while bacteriostatic compounds induce limited metabolism as indicated by an intermediate pink colour. ProTOX is broadly applicable to a range of gram-positive and gram-negative bacteria under aerobic and microaerophilic conditions. ProTOX assays were carried out using Bacillus subtilis. Briefly, in ProTOX, the bacteria (24 hour broth) were applied to the surface of an agar matrix containing the test sample and allowed to grow for 48 h. The assay was monitored at 24 and 48 hours and the active wells noted. Known antibiotics yield consistent colour transitions which are concentration and time dependent. These patterns provided an important guide to the early recognition of interesting characteristics.

[1] = test system: normal human fibroblasts (NFF); test: Additional in vitro activity: cytotoxic activity, NFF; format: cell-based; conditions: concentration with activity
prostate DU145 = test: Additional in vitro activity: antitumor activity, DU145; format: cell-based, human; conditions: concentration with activity
[2] = test system: NS1 murine myeloma cell line; test: CyTOX (Cy) cytotoxicity bioassay; format: cell-based; conditions: weight of chemical in last well with activity; real value may be lower
Description: CyTOX (alternatively referred to herein as Cy) is a microtitre plate bioassay use to identify potential antitumor actives. CyTOX is a chromogenic bioassay with broad application to a wide range of tumor and non-tumor cell lines. […] CyTOX features a liquid media into which the test compound has been incorporated together with a novel chromogen. As the cells grow and divide the chromogen is metabolised from purple in a single step process to a colourless metabolite. CyTOX is routinely undertaken using NS1 murine myeloma cell line as a guide to mammalian cell toxicity. Briefly, in CyTOX the cells were applied to the media containing the test chemical and allowed to grow for 72 hours. The assay was monitored at 24, 48 and 72 hours and the active wells identified.

Giardia spp. = test: TriTOX (Gi) anti-protozoan bioassay; format: cell-based; conditions: weight of chemical in last well with activity; real value may be lower
Description: TriTOX (alternatively referred to herein as Gi) is a microtitre plate based chromogenic bioassay for the screening of anti-protozoan activity of pathogenic, anaerobic/microaerophilic protozoans for example Giardia spp. and Trichomonas spp. The bioassays are run under anaerobic conditions and features species specific chromogens. […] Aliquots of each concentration(s) are applied to the wells of 96-well microtitre plates and diluted with media. […] The lowest concentration at which the compound is active is noted as the minimum inhibitory concentration (MIC). Additionally, microscopic inspection is carried out to identify any patterns of morphological change that may be consistent with a type of toxicity and therefore mode of action. Giardia spp. was utilized for this assay.

melanoma MM418c5 = test: Additional in vitro activity: antitumor activity, MM418c5; format: cell-based, human; conditions: concentration with activity
leukemia K562 = test: Additional in vitro activity: antitumor activity, K562; format: cell-based, human; conditions: concentration with activity
K562 leukemia = test: Cell growth inhibition (Table 22), K562; format: cell-based; conditions: Homo sapiens, read-out: IC50 (drug dose which inhibits cell growth by 50%) K562
Method: as §1

melanoma MM96L = test: Additional in vitro activity: antitumor activity, MM96L; format: cell-based, human; conditions: concentration with activity
breast MCF-7 = test: Additional in vitro activity: antitumor activity, MCF-7; format: cell-based, human; conditions: concentration with activity
CI80-13S ovarian cancer = test: Cell growth inhibition (Table 22), C180-13S; format: cell-based; conditions: Homo sapiens, read-out: IC50 (drug dose which inhibits cell growth by 50%) C180-13S
Method: as §1

ovarian C180-13S = test: Additional in vitro activity: antitumor activity, C180-13S; format: cell-based, human; conditions: concentration with activity
MCF-7 breast cancer = test: Cell growth inhibition (Table 22), MCF7; format: cell-based; conditions: Homo sapiens, read-out: IC50 (drug dose which inhibits cell growth by 50%) MCF7
Method: as §1

Drosophila melanogaster = test: DipteraTOX insecticidal bioassay; parameters: key: A value of A in DipG, Dip P or Dip H represents very active; a value of P represents active; conditions: 250 μg per mL in agar
Method: DipteraTOX. DipteraTOX is referred to herein as DipG, DipP and DipH. DipG represents no grazing of larva. DipP represents no pupae formation and Dip H represents no hatching of flies. A value of A in DipG, Dip P or Dip H represents very active and a value of P represents active. In DipteraTox the fly eggs are applied to the surface of an agar matrix containing 250 μg per mL of the test chemical and allowed to hatch, develop and pupate for a period up of two weeks. The assay was monitored at two discrete times to determine the extent of grazing of the agar matrix at Week 1 and the presence of adult flies at Week 2. […] Drosophila melanogaster was utilised for this assay.

MM96L melanoma = test: Cell growth inhibition (Table 22), MM96L; format: cell-based; conditions: Homo sapiens, read-out: IC50 (drug dose which inhibits cell growth by 50%) MM96L
Method: as §1

[3] = test system: Neonatal foreskin fibroblasts (NFF); test: Cell growth inhibition (Table 22), NFF; format: cell-based; conditions: Homo sapiens, read-out: IC50 (drug dose which inhibits cell growth by 50%) NFF
Method: as §1

tumor cells = test: Cell arrest, comparison of ethacrynic acid with EBI-23; format: cell-based

| Compound | IC50 (DU145 prostate cancer) | Bs LD99 (Bacillus subtilis) | cytotoxic activity against normal human fibroblasts (NFF) at [1] | antitumor activity against prostate DU145 at (prostate DU145) | Cy LD99 [2] | Gi LD99 (Giardia spp.) | antitumor activity against melanoma MM418c5 at (melanoma MM418c5) | antitumor activity against leukemia K562 at (leukemia K562) | IC50 (K562 leukemia) | antitumor activity against melanoma MM96L at (melanoma MM96L) | antitumor activity against breast MCF-7 at (breast MCF-7) | IC50 (CI80-13S ovarian cancer) | antitumor activity against ovarian C180-13S at (ovarian C180-13S) | IC50 (MCF-7 breast cancer) | DipH (no hatching of flies) (Drosophila melanogaster) | IC50 (MM96L melanoma) | IC50 [3] | fold higher concentration than EBI-23 to achieve cell arrest (tumor cells) | selectivity against tumor cells (tumor cells) |
| --- | --- | --- | --- | --- | --- | --- | --- | --- | --- | --- | --- | --- | --- | --- | --- | --- | --- | --- | --- |
| CCCCCCCCCCCCCC(CC1CC(O)CC2(CC3OC(=O)C=CC3O2)O1)OC(C)=O (stereo not shown) [EBI-25] | 1 µg/mL (≈ 2.02 µM) | 25 µg/mL | 30 µg/mL | 30 µg/mL | 1.6 µg/mL | 50 µg/mL | 10 µg/mL | 30 µg/mL | 6.1 µg/mL (≈ 12.3 µM) | 10 µg/mL | 300 µg/mL | 5 µg/mL (≈ 10.1 µM) | 3 µg/mL | 0.34 µg/mL (≈ 0.687 µM) | P | 1.6 µg/mL (≈ 3.23 µM) | 3 µg/mL (≈ 6.06 µM) | – | – |
| CCCCCCCCCCCCCC(CC1C=CCC2(CC3OC(=O)C=CC3O2)O1)OC(C)=O (stereo not shown) [EBI-42] | > 10 µg/mL | – | > 10 µg/mL | – | – | – | – | – | > 10 µg/mL | 10 µg/mL | – | 6 µg/mL (≈ 12.6 µM) | 10 µg/mL | 6 µg/mL (≈ 12.6 µM) | – | 6 µg/mL (≈ 12.6 µM) | > 10 µg/mL | – | – |
| C=C(CC)C(=O)c1ccc(OCC(=O)O)c(Cl)c1Cl [ethacrynic acid] | – | – | – | – | – | – | – | – | – | – | – | – | – | – | – | – | – | 10 fold | no selectivity |
